Measurements: US9675614B2, “PRMT5 inhibitors and uses thereof” (Epizyme, Inc., priority 2012, dated 2017)

The molecules below were run against PRMT5/MEP50 (Homo sapiens (Human), UniProt O14744) (assay: PRMT5 Biochemical Assay (PRMT5/MEP50 enzyme assay on peptide substrate, 3H-SAM Flashplate)). Settings: not given.
From the text: S-adenosylmethionine (SAM), S-adenosylhomocysteine (SAH), bicine, KCl, Tween20, dimethylsulfoxide (DMSO), bovine skin gelatin (BSG), and Tris(2-carboxyethyl)phosphine hydrochloride solution (TCEP) were purchased from Sigma-Aldrich at the highest level of purity possible. ^3H-SAM was purchase from American Radiolabeled Chemicals with a specific activity of 80 Ci/mmol. 384-well streptavidin Flashplates were purchased from PerkinElmer.
Peptide representative of human histone H4 residues 1-15 was synthesized with a C-terminal linker-affinity tag motif and a C-terminal amide cap by 21st Century Biochemicals. […] The sequence was Ac-[…][K-Biot]amide (SEQ ID NO.:3).
Full-length human MEP50 (NM_024102) clone was amplified from a human testis cDNA library incorporating a 5′ sequence encoding a 6-histidine tag (MHHHHHH) (SEQ ID NO.:5) fused directly to Arg 2 of MEP50. The amplified genes were subcloned into pENTR/D/TEV (Life Technologies) and subsequently transferred by Gateway™ attL×attR recombination to pDEST8 baculvirus expression vector (Life Technologies).
Recombinant baculovirus and Baculovirus-Infected Insect Cells (BIIC) were generated according to Bac-to-Bac kit instructions (Life Technologies) and Wasilko, 2006, respectively. Protein over-expression was accomplished by infecting exponentially growing Spodoptera frugiperda (SF9) cell culture at 1.2×10^6 cell/ml with a 5000 fold dilution of BIIC stock. Infections were carried out at 27° C. for 72 hours, harvested by centrifugation, and stored at −80° C. for purification.
Flag-PRMT5/6His-MeP50 was eluted with 300 mM Imidazole in the same buffer. […] Reference: Wasilko, D. J. and S. E. Lee: “TIPS: titerless infected-cells preservation and scale-up” Bioprocess J., 5 (2006), pp. 29-32.
General Procedure for PRMT5/MEP50 Enzyme Assays on Peptide Substrates.
The assays were all performed in a buffer consisting of 20 mM Bicine (pH=7.6), 1 mM TCEP, 0.005% BSG, and 0.002% Tween20, prepared on the day of use. Compounds in 100% DMSO (1 ul) were spotted into a polypropylene 384-well V-bottom plates (Greiner) using a Platemate Plus outfitted with a 384-channel head (Thermo Scientific). DMSO (1 ul) was added to Columns 11, 12, 23, 24, rows A-H for the maximum signal control and 1 ul of SAH, a known product and inhibitor of PRMT5/MEP50, was added to columns 11, 12, 23, 24, rows I-P for the minimum signal control. A cocktail (40 ul) containing the PRMT5/MEP50 enzyme and the peptide was added by Multidrop Combi (Thermo-Fisher). The compounds were allowed to incubate with PRMT5/MEP50 for 30 min at 25 degrees Celsius, then a cocktail (10 ul) containing ^3H-SAM was added to initiate the reaction (final volume=51 ul). The final concentrations of the components were as follows: PRMT5/MEP50 was 4 nM, ^3H-SAM was 75 nM, peptide was 40 nM, SAH in the minimum signal control wells was 100 uM, and the DMSO concentration was 1%. The assays were stopped by the addition of non-radioactive SAM (10 ul) to a final concentration of 600 uM, which dilutes the ^3H-SAM to a level where its incorporation into the peptide substrate is no longer detectable. 50 ul of the reaction in the 384-well polypropylene plate was then transferred to a 384-well Flashplate and the biotinylated peptides were allowed to bind to the streptavidin surface for at least 1 hour before being washed three times with 0.1% Tween20 in a Biotek ELx405 plate washer. The plates were then read in a PerkinElmer TopCount plate reader to measure the quantity of ^3H-labeled peptide bound to the Flashplate surface, measured as disintegrations per minute (dpm) or alternatively, referred to as counts per minute (cpm).
[formula] Where dpm=disintegrations per minute, cmpd=signal in assay well, and min and max are the respective minimum and maximum signal controls.
[formula] Where top and bottom are the normally allowed to float, but may be fixed at 100 or 0 respectively in a 3-parameter fit.

Sequence of PRMT5/MEP50 (O14744 other isoform, or with tags, fused parts or gaps): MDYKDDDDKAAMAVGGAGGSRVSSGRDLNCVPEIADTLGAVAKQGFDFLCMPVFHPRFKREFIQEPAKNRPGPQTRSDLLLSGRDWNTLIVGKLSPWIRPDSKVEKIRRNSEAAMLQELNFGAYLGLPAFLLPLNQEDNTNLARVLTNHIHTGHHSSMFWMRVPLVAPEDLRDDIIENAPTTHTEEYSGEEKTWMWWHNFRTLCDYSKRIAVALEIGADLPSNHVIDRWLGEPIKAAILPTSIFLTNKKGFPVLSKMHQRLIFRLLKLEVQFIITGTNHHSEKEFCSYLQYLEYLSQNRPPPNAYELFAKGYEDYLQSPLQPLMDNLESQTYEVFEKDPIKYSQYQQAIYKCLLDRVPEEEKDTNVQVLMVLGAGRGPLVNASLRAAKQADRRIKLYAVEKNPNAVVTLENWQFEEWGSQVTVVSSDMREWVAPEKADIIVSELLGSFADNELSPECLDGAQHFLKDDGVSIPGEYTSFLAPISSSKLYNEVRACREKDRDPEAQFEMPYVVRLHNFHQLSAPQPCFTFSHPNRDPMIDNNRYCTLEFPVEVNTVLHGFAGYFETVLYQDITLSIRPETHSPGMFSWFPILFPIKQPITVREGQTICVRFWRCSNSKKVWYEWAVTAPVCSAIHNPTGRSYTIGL
Sequence of PRMT5/MEP50 (Q9BQA1 other isoform, or with tags, fused parts or gaps partner): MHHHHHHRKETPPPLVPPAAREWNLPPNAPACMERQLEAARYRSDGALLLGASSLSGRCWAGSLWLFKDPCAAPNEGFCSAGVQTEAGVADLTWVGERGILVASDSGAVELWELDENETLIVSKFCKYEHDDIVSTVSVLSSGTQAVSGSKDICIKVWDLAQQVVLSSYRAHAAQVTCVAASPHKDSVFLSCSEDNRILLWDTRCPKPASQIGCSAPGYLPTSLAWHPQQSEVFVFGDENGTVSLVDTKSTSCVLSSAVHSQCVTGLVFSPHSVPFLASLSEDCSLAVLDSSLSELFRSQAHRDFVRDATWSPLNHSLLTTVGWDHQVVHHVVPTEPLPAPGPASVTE

`O=C(NC[C@H](O)CN1CCc2ccccc2C1)Oc1ccccc1` [Compound 7] was tested, and the IC50 was 1000 to 10000 nM.

Same assay, conditions: PRMT5/MEP50 biochemical assay; read-out: Biochemical IC50

`O=C(NCC(O)CN1CCc2ccccc2C1)c1cccc(-c2ccccn2)c1` (stereo not drawn) [Compound 1, N-(3-(3,4-dihydroisoquinolin-2(1H)-yl)-2-hydroxypropyl)-3-(pyridin-2-yl)benzamide] and `O=C(NC[C@@H](O)CN1CCc2ccccc2C1)c1cccc(-c2ccccn2)c1` [Compound 19] cannot be ordered by IC50: under 100 nM for the first, under 100 nM for the second.

`Cn1nccc1-c1cccc(C(=O)NCC(O)CN2CCc3ccccc3C2)c1` (stereo not drawn) [Compound 2, N-(3-(3,4-dihydroisoquinolin-2(1H)-yl)-2-hydroxypropyl)-3-(1-methyl-1H-pyrazol-5-yl)benzamide] and `O=C(NCC(O)CN1CCc2ccccc2C1)c1cccc(-c2cc[nH]n2)c1` (stereo not drawn) [Compound 10] cannot be ordered by IC50: under 100 nM for the first, under 100 nM for the second.

First: O=C(NC[C@H](O)CN1CCc2ccccc2C1)c1ccccc1 [Compound 3, (S)—N-(3-(3,4-dihydroisoquinolin-2(1H)-yl)-2-hydroxypropyl)benzamide]
Second: O=C(NC[C@@H](O)CN1CCc2ccccc2C1)c1ccccc1 [Compound 4]
The IC50 of the first is lower: under 100 nM for the first, 1000 to 10000 nM for the second. The first is the more potent here.

First: O=C(NC[C@H](O)CN1CCc2ccccc2C1)Nc1ccccc1 [Compound 5]
Second: O=C(NC[C@@H](O)CN1CCc2ccccc2C1)Nc1ccccc1 [Compound 6]
The IC50 of the first is lower: 101 to 1000 nM for the first, 1000 to 10000 nM for the second. The first is the more potent here.

`O=C(NCC(O)CN1CCc2ccccc2C1)c1cccc(-c2cccnc2)c1` (stereo not drawn) [Compound 8, N-(3-(3,4-dihydroisoquinolin-2(1H)-yl)-2-hydroxypropyl)-3-(pyridin-3-yl)benzamide] and `O=C(NCC(O)CN1CCc2ccccc2C1)c1cccc(-c2ccncc2)c1` (stereo not drawn) [Compound 9, N-(3-(3,4-dihydroisoquinolin-2(1H)-yl)-2-hydroxypropyl)-3-(pyridin-4-yl)benzamide] cannot be ordered by IC50: under 100 nM for the first, under 100 nM for the second.

`O=C(NC[C@@H](O)CN1CCc2ccccc2C1)Oc1ccccc1` [Compound 11, (R)-phenyl (3-(3,4-dihydroisoquinolin-2(1H)-yl)-2-hydroxypropyl)carbamate] and `O=C(NC[C@H](O)CN1CCc2ccccc2C1)c1cccc(-c2ccccn2)c1` [Compound 20] cannot be ordered by IC50: under 100 nM for the first, under 100 nM for the second.

`O=C(NCC(O)CN1CCc2ccccc2C1)c1ccc(-c2ccccn2)cc1` (stereo not drawn) [Compound 13, N-(3-(3,4-dihydroisoquinolin-2(1H)-yl)-2-hydroxypropyl)-4-(pyridin-2-yl)benzamide] and `CS(=O)(=O)Nc1cccc(C(=O)NCC(O)CN2CCc3ccccc3C2)c1` (stereo not drawn) [Compound 24] cannot be ordered by IC50: under 100 nM for the first, under 100 nM for the second.

`O=C(NCC(O)CN1CCc2ccccc2C1)c1cccc(N2CCOCC2)c1` (stereo not drawn) [Compound 14, N-(3-(3,4-dihydroisoquinolin-2(1H)-yl)-2-hydroxypropyl)-3-morpholinobenzamide] and `O=C(NCC(O)CN1CCc2ccccc2C1)c1cccc(N2CCNCC2)c1` (stereo not drawn) [Compound 35, N-(3-(3,4-dihydroisoquinolin-2(1H)-yl)-2-hydroxypropyl)-3-(piperazin-1-yl)benzamide] cannot be ordered by IC50: under 100 nM for the first, under 100 nM for the second.

`O=C(NCC(O)CN1CCc2ccccc2C1)c1cccc(CNC2CCOCC2)c1` (stereo not drawn) [Compound 15, N-(3-(3,4-dihydroisoquinolin-2(1H)-yl)-2-hydroxypropyl)-3-(((tetrahydro-2H-pyran-4-yl)amino)methyl)benzamide] and `O=C(NCC(O)CN1CCc2ccccc2C1)c1cccc(NC2CCOCC2)c1` (stereo not drawn) [Compound 16, N-(3-(3,4-dihydroisoquinolin-2(1H)-yl)-2-hydroxypropyl)-3-((tetrahydro-2H-pyran-4-yl)amino)benzamide] cannot be ordered by IC50: under 100 nM for the first, under 100 nM for the second.

`CN(C)CCOc1cccc(C(=O)NCC(O)CN2CCc3ccccc3C2)c1` (stereo not drawn) [Compound 28, N-(3-(3,4-dihydroisoquinolin-2(1H)-yl)-2-hydroxypropyl)-3-(2-(dimethylamino)ethoxy)benzamide] and `CN1CCCC1c1cccc(C(=O)NCC(O)CN2CCc3ccccc3C2)c1` (stereo not drawn) [Compound 34, N-(3-(3,4-dihydroisoquinolin-2(1H)-yl)-2-hydroxypropyl)-3-(1-methylpyrrolidin-2-yl) benzamide] cannot be ordered by IC50: under 100 nM for the first, under 100 nM for the second.

`O=C(NCC(O)CN1CCc2ccccc2C1)c1cccc(CN2CCNCC2)c1` (stereo not drawn) [Compound 29] and `CN1CCN(Cc2cccc(C(=O)NCC(O)CN3CCc4ccccc4C3)c2)CC1` (stereo not drawn) [Compound 30, N-(3-(3,4-dihydroisoquinolin-2(1H)-yl)-2-hydroxypropyl)-3-((4-methylpiperazin-1-yl)methyl)benzamide] cannot be ordered by IC50: under 100 nM for the first, under 100 nM for the second.

`CN1CCN(c2cccc(C(=O)NCC(O)CN3CCc4ccccc4C3)c2)CC1` (stereo not drawn) [Compound 36] and `CN1CCC(c2cccc(C(=O)NCC(O)CN3CCc4ccccc4C3)c2)C1` (stereo not drawn) [Compound 38, N-(3-(3,4-dihydroisoquinolin-2(1H)-yl)-2-hydroxypropyl)-3-(1-methylpyrrolidin-3-yl)benzamide] cannot be ordered by IC50: under 100 nM for the first, under 100 nM for the second.

`O=C(NCC(O)CN1CCc2ccccc2C1)c1cccc(C2CCNC2)c1` (stereo not drawn) [Compound 37] and `O=C(NCC(O)CN1CCc2ccccc2C1)c1cccc(NC2CCOC2)c1` (stereo not drawn) [Compound 45, N-(3-(3,4-dihydroisoquinolin-2(1H)-yl)-2-hydroxypropyl)-3-((tetrahydrofuran-3-yl)amino)benzamide] cannot be ordered by IC50: under 100 nM for the first, under 100 nM for the second.

First: Cc1c(NC2CCOCC2)cccc1C(=O)NCC(O)CN1CCc2ccccc2C1 (stereo not drawn) [Compound 40, N-(3-(3,4-dihydroisoquinolin-2(1H)-yl)-2-hydroxypropyl)-2-methyl-3-((tetrahydro-2H-pyran-4-yl)amino)benzamide]
Second: O=C(NC[C@@H](O)CN1CCc2ccccc2C1)c1cccc(NC2CCOCC2)c1 [Compound 43]
The IC50 of the first is lower: under 100 nM for the first, 101 to 1000 nM for the second.

`CCN(c1cccc(C(=O)NCC(O)CN2CCc3ccccc3C2)c1C)C1CCOCC1` (stereo not drawn) [Compound 41] and `O=C(NCC(O)CN1CCc2ccccc2C1)c1cccc(CC2CCOCC2)c1` (stereo not drawn) [Compound 59] cannot be ordered by IC50: under 100 nM for the first, under 100 nM for the second.

First: O=C(NC[C@H](O)CN1CCc2ccccc2C1)c1cccc(NC2CCOCC2)c1 [Compound 44, (S)—N-(3-(3,4-dihydroisoquinolin-2(1H)-yl)-2-hydroxypropyl)-3-((tetrahydro-2H-pyran-4-yl)amino)benzamide]
Second: O=C(NCC(O)CN1CCc2ccccc2C1)c1cccc(NC2CCCOC2)c1 (stereo not drawn) [Compound 60]
The IC50 of the first is lower: under 100 nM for the first, 101 to 1000 nM for the second.

`O=C(NCC(O)CN1CCc2ccccc2C1)c1cncc(NC2CCOCC2)c1` (stereo not drawn) [Compound 54, N-(3-(3,4-dihydroisoquinolin-2(1H)-yl)-2-hydroxypropyl)-5-((tetrahydro-2H-pyran-4-yl)amino)nicotinamide] and `O=C(NCC(O)CN1CCc2ccccc2C1)c1cc(NC2CCOCC2)ccn1` (stereo not drawn) [Compound 55, N-(3-(3,4-dihydroisoquinolin-2(1H)-yl)-2-hydroxypropyl)-4-((tetrahydro-2H-pyran-4-yl)amino)picolinamide] cannot be ordered by IC50: under 100 nM for the first, under 100 nM for the second.

`O=C(NCC(O)CN1CCc2ccccc2C1)c1ccc(OC2CCOCC2)cc1` (stereo not drawn) [Compound 58, N-(3-(3,4-dihydroisoquinolin-2(1H)-yl)-2-hydroxypropyl)-4-((tetrahydro-2H-pyran-4-yl)oxy)benzamide] and `O=C(NCC(O)CN1CCc2ccccc2C1)c1ccnc(NC2CCOCC2)n1` (stereo not drawn) [Compound 62] cannot be ordered by IC50: under 100 nM for the first, under 100 nM for the second.

First: O=C(NCC(O)CN1CCc2ccccc2C1)c1cccc(NCCN2CCOCC2)c1 (stereo not drawn) [Compound 61]
Second: O=C(NCC(O)CN1CCc2ccccc2C1)c1cc(NC2CCOCC2)ncn1 (stereo not drawn) [Compound 63]
The IC50 of the first is higher: 101 to 1000 nM for the first, under 100 nM for the second.
